Data taken from patent publication US6482438B1, “Apparatus and process for preparing crystalline particles” (SmithKline Beecham Corporation, priority 1998, dated 2002).

Tests used:
[1] = Malvern laser diffraction particle sizing (Mastersizer X) of crystalline fluticasone propionate particles; format: physicochemical
Description: A continuous flow reaction cell with 2 diametrically opposite inlets at the bottom and a run-out ca. half way up the side of the vessel is used in the experiment. The drug substance (fluticasone propionate, FP) is dissolved in acetone (15 vol, 0.133 M) at elevated temperature (50-56° C.) and then allowed to cool to ambient temperature (20° C.). A solution of FP is then pumped using a peristaltic pump into one of the bottom inlets of the reaction cell. Water was similarly pumped via the other inlet from a water reservoir using a second pump.
Re-crystallisations are carried out from various mixtures of acetone and water (by altering the flow rates of each) as dictated by the parameters set out in the experimental design. Efficient mixing of the two streams is ensured with the aid of a non-grinding magnetic stirrer bar.
(§1) Before carrying out any particular crystallisation, the cell is pre-charged with a mixture of acetone/water (the ratio of each being the same as the relative pumping rates from the two reservoirs). By doing this, the relative concentrations of the water to acetone remains constant throughout the crystallisation. The tip of the sono-probe is arranged so that it is just above the inlet for the FP solution. When the magnetic stirrer, sono-probe and pumps are turned on, rapid onset of crystallisation takes place. A suspension of the crystallisation mixture exits via the overflow directly on to a filter funnel thus minimising the opportunity for further crystal growth.
(§2) Using the above set-up, the experiments set out in the experimental design shown below were carried out and the samples of damp solid harvested and dried in vacuo at ambient temperature. All the samples were sized using the Malvern laser diffraction particle sizer and the results analysed using multi-dimensional model fitting software (such as Design Expert 5).
Ultrasound Power is given as a percentage of maximum (50 W). Ultrasound frequency was 22 kHz.
(§3) Samples were analysed using Malvern laser diffraction particle sizing.
Instrument: Malvern Mastersizer X
Lens: 45 mm Reverse Fourier
Analysis: 0607 presentation code
(§4) Dispersant: Iso Octane / Lecithin 0.05% w/w
Pre dispersion: Sonicate for 10 seconds
(§5) One analysis per sample was carried out. The median particle size (D50), particle size at 90% undersize (D90) and particle size at 10% undersize (D10) were used as responses to characterise the medium, course, and fine particles. In addition a fourth response, uniformity index (Ul) was calculated as a measure of the breadth of the distribution.
Uniformity Index (Ul) is calculated as 100×D10/D90.

[2] = Malvern laser diffraction particle sizing (Mastersizer S) of crystalline salmeterol xinafoate particles; format: physicochemical; details: methanol solution 7 ml/min
Description: A continuous flow reaction cell with 2 diametrically opposite inlets at the bottom and a run-out ca. half way up the side of the vessel is used in the experiment. […] The drug substance (salmeterol xinafoate) is dissolved in methanol (6 vol) at elevated temperature
(65° C.). A solution of salmeterol xinafoate (0.276 M) is then pumped (a fixed rate of 7 ml/min) using a peristaltic pump into one of the bottom inlets of the reaction cell. Cold water was similarly pumped via the other inlet from a water reservoir using a second pump at rates as dictated by the experimental design.
Re-crystallisations are carried out from various mixtures of methanol and water as dictated by the parameters set out in the experimental design. Efficient mixing of the two streams is ensured with the aid of a non-grinding magnetic stirrer bar. The stirrer speed is maintained constant at all times. The stir speed is set at such a rate so as to induce a minimum amount of vortex.
as §1, with “methanol/water” for “acetone/water”, “methanol” for “acetone”, “salmeterol” for “FP”
as §2
Ultrasound Power is given as a percentage of maximum (600 W). Ultrasound frequency was 22 kHz.
as §3
Instrument: Malvern Mastersizer S
Lens: 300 mm Reverse Fourier
Analysis: presentation code 30 GE
as §4
Pre dispersion: Sonicate for 1 Minute
as §5, with “10 %” for “10%”
Uniformity Index (Ul) is calculated as 100×D 10/D90.

[3] = Run 1: water 24 ml/min, acetone solution 3.50 ml/min, stirring 40.00 %, ultrasound 0.00 % of 50 W
[4] = Run 2: water 18 ml/min, acetone solution 5.25 ml/min, stirring 20.00 %, ultrasound 20.00 % of 50 W
[5] = Run 3: water 24 ml/min, acetone solution 3.50 ml/min, stirring 0.00 %, ultrasound 40.00 % of 50 W
[6] = Run 4: water 12 ml/min, acetone solution 7.00 ml/min, stirring 0.00 %, ultrasound 40.00 % of 50 W
[7] = Run 5: water 24 ml/min, acetone solution 7.00 ml/min, stirring 40.00 %, ultrasound 40.00 % of 50 W
[8] = Run 6: water 18 ml/min, acetone solution 5.25 ml/min, stirring 20.00 %, ultrasound 20.00 % of 50 W
[9] = Run 7: water 12 ml/min, acetone solution 3.50 ml/min, stirring 0.00 %, ultrasound 0.00 % of 50 W
[10] = Run 8: water 12 ml/min, acetone solution 7.00 ml/min, stirring 40.00 %, ultrasound 0.00 % of 50 W
[11] = Run 9: water 12 ml/min, acetone solution 3.50 ml/min, stirring 40.00 %, ultrasound 40.00 % of 50 W
[12] = Run 10: water 24 ml/min, acetone solution 7.00 ml/min, stirring 0.00 %, ultrasound 0.00 % of 50 W
[13] = Run 1: water 14 ml/min, ultrasound 10.00 % of 600 W
[14] = Run 2: water 56 ml/min, ultrasound 10.00 % of 600 W
[15] = Run 3: water 56 ml/min, ultrasound 90.00 % of 600 W
[16] = Run 4: water 56 ml/min, ultrasound 90.00 % of 600 W
[17] = Run 5: water 56 ml/min, ultrasound 10.00 % of 600 W
[18] = Run 6: water 14 ml/min, ultrasound 10.00 % of 600 W
[19] = Run 7: water 35 ml/min, ultrasound 50.00 % of 600 W
[20] = Run 8: water 14 ml/min, ultrasound 90.00 % of 600 W
[21] = Run 9: water 35 ml/min, ultrasound 50.00 % of 600 W
[22] = Run 10: water 14 ml/min, ultrasound 90.00 % of 600 W

With `CCC(=O)O[C@]1(C(=O)SCF)[C@H](C)C[C@H]2[C@@H]3C[C@H](F)C4=CC(=O)C=C[C@]4(C)[C@@]3(F)[C@@H](O)C[C@@]21C` [fluticasone propionate] as the compound, how does the “D10 particle size at 10% undersize” value [1, 3] read?
The value was 1.07 μm.

What about the “D50 median particle size” value [1, 3] of the same compound?
The value was 4.95 μm.

What about the “D90 particle size at 90% undersize” value [1, 3] of the same compound?
Its value is 18.91 μm.

And the “UI uniformity index (100×D10/D90)” value [1, 3]?
Its value is 5.7%.

What about the “D10 particle size at 10% undersize” value [1, 4] of the same compound?
Its value is 1.02 μm.

What about the “D50 median particle size” value [1, 4] of the same compound?
The value was 4.56 μm.

What about the “D90 particle size at 90% undersize” value [1, 4] of the same compound?
Its value is 14.29 μm.

And the “UI uniformity index (100×D10/D90)” value [1, 4]?
The value was 7.1%.

What about the “D10 particle size at 10% undersize” value [1, 5] of the same compound?
Its value is 1 μm.

What about the “D50 median particle size” value [1, 5] of the same compound?
Its value is 4.2 μm.

And the “D90 particle size at 90% undersize” value [1, 5]?
The value was 18.3 μm.

What about the “UI uniformity index (100×D10/D90)” value [1, 5] of the same compound?
The value was 5.3%.

What about the “D10 particle size at 10% undersize” value [1, 6] of the same compound?
Its value is 2.62 μm.

What about the “D50 median particle size” value [1, 6] of the same compound?
The value was 7.52 μm.

And the “D90 particle size at 90% undersize” value [1, 6]?
The value was 20.83 μm.

What about the “UI uniformity index (100×D10/D90)” value [1, 6] of the same compound?
Its value is 12.6%.

And the “D10 particle size at 10% undersize” value [1, 7]?
Its value is 1.05 μm.

And the “D50 median particle size” value [1, 7]?
The value was 4.3 μm.

What about the “D90 particle size at 90% undersize” value [1, 7] of the same compound?
Its value is 14.66 μm.

What about the “UI uniformity index (100×D10/D90)” value [1, 7] of the same compound?
The value was 7.2%.

And the “D10 particle size at 10% undersize” value [1, 8]?
The value was 0.89 μm.

And the “D50 median particle size” value [1, 8]?
The value was 5.28 μm.

And the “D90 particle size at 90% undersize” value [1, 8]?
The value was 17.16 μm.

What about the “UI uniformity index (100×D10/D90)” value [1, 8] of the same compound?
The value was 5.1%.

And the “D10 particle size at 10% undersize” value [1, 9]?
The value was 2.32 μm.

What about the “D50 median particle size” value [1, 9] of the same compound?
Its value is 9.34 μm.

And the “D90 particle size at 90% undersize” value [1, 9]?
Its value is 28.97 μm.

And the “UI uniformity index (100×D10/D90)” value [1, 9]?
Its value is 8%.

And the “D10 particle size at 10% undersize” value [1, 10]?
The value was 1.06 μm.

And the “D50 median particle size” value [1, 10]?
Its value is 3.46 μm.

And the “D90 particle size at 90% undersize” value [1, 10]?
The value was 9.33 μm.

And the “UI uniformity index (100×D10/D90)” value [1, 10]?
The value was 11.4%.

What about the “D10 particle size at 10% undersize” value [1, 11] of the same compound?
The value was 0.97 μm.

And the “D50 median particle size” value [1, 11]?
The value was 3.67 μm.

What about the “D90 particle size at 90% undersize” value [1, 11] of the same compound?
Its value is 11.47 μm.

What about the “UI uniformity index (100×D10/D90)” value [1, 11] of the same compound?
The value was 8.5%.

What about the “D10 particle size at 10% undersize” value [1, 12] of the same compound?
The value was 1.48 μm.

And the “D50 median particle size” value [1, 12]?
Its value is 9.79 μm.

What about the “D90 particle size at 90% undersize” value [1, 12] of the same compound?
Its value is 37.62 μm.

What about the “UI uniformity index (100×D10/D90)” value [1, 12] of the same compound?
Its value is 3.9%.

Which results are given for `OCc1cc(C(O)CNCCCCCCOCCCCc2ccccc2)ccc1O` (centres unmarked) [salmeterol xinafoate]?
D10 particle size at 10% undersize [2, 13]: 1.6 μm; D50 median particle size [2, 13]: 10.1 μm; D90 particle size at 90% undersize [2, 13]: 24.78 μm; UI uniformity index (100×D10/D90) [2, 13]: 6.46%; D10 particle size at 10% undersize [2, 14]: 0.48 μm; D50 median particle size [2, 14]: 3.9 μm; D90 particle size at 90% undersize [2, 14]: 10.21 μm; UI uniformity index (100×D10/D90) [2, 14]: 4.70%; D10 particle size at 10% undersize [2, 15]: 0.64 μm; D50 median particle size [2, 15]: 4.24 μm; D90 particle size at 90% undersize [2, 15]: 14.45 μm; UI uniformity index (100×D10/D90) [2, 15]: 4.42%; D10 particle size at 10% undersize [2, 16]: 0.53 μm; D50 median particle size [2, 16]: 4.29 μm; D90 particle size at 90% undersize [2, 16]: 17.62 μm; UI uniformity index (100×D10/D90) [2, 16]: 3.01%; D10 particle size at 10% undersize [2, 17]: 0.39 μm; D50 median particle size [2, 17]: 4.74 μm; D90 particle size at 90% undersize [2, 17]: 16.8 μm; UI uniformity index (100×D10/D90) [2, 17]: 2.32%; D10 particle size at 10% undersize [2, 18]: 2.17 μm; D50 median particle size [2, 18]: 11.09 μm; D90 particle size at 90% undersize [2, 18]: 23.37 μm; UI uniformity index (100×D10/D90) [2, 18]: 9.28%; D10 particle size at 10% undersize [2, 19]: 1.08 μm; D50 median particle size [2, 19]: 4.75 μm; D90 particle size at 90% undersize [2, 19]: 13.45 μm; UI uniformity index (100×D10/D90) [2, 19]: 8.03%; D10 particle size at 10% undersize [2, 20]: 1.63 μm; D50 median particle size [2, 20]: 6.37 μm; D90 particle size at 90% undersize [2, 20]: 20.37 μm; UI uniformity index (100×D10/D90) [2, 20]: 8.00%; D10 particle size at 10% undersize [2, 21]: 1.88 μm; D50 median particle size [2, 21]: 4.99 μm; D90 particle size at 90% undersize [2, 21]: 11.76 μm; UI uniformity index (100×D10/D90) [2, 21]: 15.99%; D10 particle size at 10% undersize [2, 22]: 1.77 μm; D50 median particle size [2, 22]: 7.86 μm; D90 particle size at 90% undersize [2, 22]: 24.96 μm; UI uniformity index (100×D10/D90) [2, 22]: 7.09%
